# Where two headings read alike, the source gives them in different places.
# How the values were obtained:
# Staphylococcus spp. [1] = test: Rifampicin susceptibility testing (E-test strip) of Staphylococcus colonies isolated from rat stool; assay type: cell-based; settings: for MIC: read-out: mean inhibitory concentration (MIC) for rifampicin
# Description: Rifampicin susceptibility was tested in Staphylococcus spp. isolated from stool of rats before and after rifaximin treatment for 10 days. From PEA plates, 30 random recognizable Staphylococcus colonies were picked for baseline cultures, suspended in PBS and spread on PEA agar plates to create a lawn. A commercially available rifampicin test strip was added to each lawn to detect rifampicin resistance. The range of rifampicin mean inhibitory concentrations (MICs) detected by E-test was 0.002 to 32 μg/mL. Based on manufacturer's instruction, growth at <2 ug/mL was considered sensitive, growth at 2-4 ug/mL was considered intermediate resistance to rifampicin, and growth at >4 ug/mL was considered resistant to rifampicin. After 10 days of rifaximin, stool was again plated on PEA and another 30 staphylococcal colonies were picked for producing a lawn to analyze rifampicin resistance using the applied test strip. Since no significant Staphylococcus spp. colonies remained on day 30 post rifaximin treatment, sensitivity testing could not be assessed.
# Staphylococcus spp. [2] = test: Stool Staphylococcus spp. colony counts (PEA agar) during and after daily rifaximin gavage; assay type: in vivo, Sprague-Dawley rats
# Source text: Adult male Sprague-Dawley rats were acquired and quarantined for 5 days. During this time, chow was standardized to ensure all animals had identical feeding type.
# (§1) After this equilibration period, fresh stool was collected from each rat (n=30) by anal stimulation. The stool collected on Day 0 was homogenized and plated by serial dilution with 1XPBS (Phosphate Buffered Saline) on Blood Agar with Phenylethyl Alcohol (PEA) to select for the presence of the Staphylococcal spp. Similarly, homogenized stool was serially plated on MacConkey agar to select for and determine coliform counts in the stool. All plates were incubated for 24 hours at 37° C. Based on serial stool dilution and colony counts, the baseline stool levels of Staphylococcus spp. and coliforms were determined
# (§2) Rats were divided into 3 treatment groups and gavaged daily for 10 days with or without high dose rifaximin Group 1 was gavaged with PBS alone, Group 2 was gavaged daily with rifaximin 200 mg in PBS. Groups 1 and 2 were euthanized after the 10 days of daily gavage. Group 3 was gavaged daily with rifaximin 200 mg in PBS and housed for 30 days following completion of rifaximin before euthanasia. During the rifaximin treatment, fresh stool was collected daily as described above. Again, stool was homogenized and plated by serial dilution on MacConkey and PEA agar to determine coliform and Staphylococcus spp. counts during the treatment. After the completion of 10 days of treatment, 10 rats were euthanized for bacterial quantitation by culture and qPCR throughout the intestinal tract. The remaining 10 rats were followed for 30 days after completing rifaximin. These rats had interval stool culture for quantitation of Staphylococcus spp. and coliforms and the determination of recovery time of stool flora if any.
# coliforms [3] = test: Stool coliform culture (MacConkey agar) with rifaximin gavage; assay type: in vivo, Sprague-Dawley rats
# Description: as §1
# as §2, with “Again, stool was homogenized and plated by serial dilution on MacConkey and PEA agar to determine coliform and Staphylococcus spp. counts during the treatment.” left out, “The remaining 10 rats were followed for 30 days after completing rifaximin.” left out
# total bacteria = test: qPCR of total luminal bacteria by bowel segment; assay type: in vivo, Sprague-Dawley rats
# Source text: (§3) For the examination of luminal bacterial counts, rats were euthanized and dissected after 10 days of PBS (n=10) (control), after 10 days of rifaximin (n=10) and 30 days post rifaximin (n=10). During the dissection, pre-specified segments of duodenum, jejunum, ileum, cecum and left colon were ligated and resected as previously described (Pimentel et al. 2008. Dig Dis Sci 53:982-989). Luminal contents were extracted from each segment. For culture of coliforms, serial dilutions were again prepared and plated on MacConkey agar then incubated and counted. In addition, luminal contents were also used to determine total bacterial counts by qPCR.
# To quantify bacteria in the luminal contents, qPCR was used. DNA was isolated from luminal contents of the duodenal, jejunal, ileal, cecal and left colon samples using commercially available kits. Bacterial universal primers (Mohammadi et al. 2003. J Clin Microbiol 41(10):4796-4798) were used to amplify the 16S rRNA gene from DNA using a commercially available RT-PCR detection system and optical grade 96-well plates. Samples were run in duplicate. To generate standard curves, the Ct values were analyzed from ten-fold dilutions of lysed Escherichia coli cultures. E. coli from a number of laboratory strains were pooled and grown in LB media.
# The same adult male Sprague-Dawley rats from the coliform culture study described above were used here. In this experiment, ten rats were euthanized at day 10 of rifaximin treatment, and ten rats were euthanized at day 30 after completion of rifaximin treatment. As a control to these two groups, a group of 10 rats were gavaged with only PBS (placebo); these rats were also euthanized after 10 days. After euthanasia, rats were dissected to remove a segment of ileum, jejunum and duodenum as well as cecum and left colon. Luminal contents from these 5 areas were removed, and DNA was extracted. Quantitative PCR (qPCR) was used to determine the total number of bacteria in each segment of bowel. These counts were compared between control, rifaximin treated and 30 day post rifaximin rats (Example 1).
# coliforms [4] = test: Luminal coliform culture by bowel segment; assay type: in vivo, Sprague-Dawley rats; settings: after treatment with rifaximin vs non-treated control rats; bowel segments (FIG. 3)
# Source text: as §3
# coliform bacteria = test: Effect of dietary fat with rifaximin on coliform bacteria; assay type: in vivo, Sprague-Dawley rats; settings: healthy rats
# Description: Adult male Sprague-Dawley Rats were randomly assigned to three groups. Group 1 was gavaged daily for 7 days with rifaximin in PBS. Group 2 received rifaximin 200 mg in lipid daily by gavage. Group 3 were 10 rats only given PBS (control). Rats had fresh stool collected by anal stimulation at baseline and daily during gavage. The stool was homogenized and plated by serial dilution on MacConkey Agar (BD Diagnostics, Franklin Lakes, N.J.). This is a selective agar for coliform bacteria. Based on serial dilution, the total number of coliform bacteria was determined.
# Staphylococcus = test: IBS model (post C. jejuni): presence of Staphylococcus after rifaximin; assay type: in vivo, Sprague-Dawley rats; settings: rats with IBS phenotype; 51 rats rifaximin vs 50 placebo
# Description: Following acute infection with C. jejuni, rats develop a phenotype of IBS and small intestinal bacterial overgrowth. For the examination of antibiotic resistance following rifaximin treatment in subject with IBS, 100 Sprague-Dawley rats were gavaged with 10^8 cfu of C. jejuni 81-176 within 30 minutes of gavage with a bicarbonate solution using a ball-tipped gavage needle. After gavage rats were followed with daily stool culture for C. jejuni for seven consecutive days to verify infection. In addition, stool was characterized on the basis of consistency.
# Thirty days from gavage, stool samples were collected on two consecutive days to confirm absence of C. jejuni in stool. Once rats were confirmed to have cleared C. jejuni, they were housed in common conditions for a period of three months. […]
# The rats were then randomized and received either a 200 mg dose of rifaximin in PBS or PBS alone daily for 10 days. […] Upon completion of treatment with rifaximin, the rats were monitored for an additional seven days. […]
# The effect of rifaximin on Staphylococcal species was tested and antibiotic resistance was examined. The contents of the ligated bowel segments were examined to determine the quantity and type of bacteria by segment and evaluate expression of mucosal cytokines. […]
# Staphylococcal spp = test: IBS model: Staphylococcus sensitivity testing to rifampin (E-test strips); assay type: cell-based
# Description: The effect of rifaximin on Staphylococcal species was tested and antibiotic resistance was examined. The contents of the ligated bowel segments were examined to determine the quantity and type of bacteria by segment and evaluate expression of mucosal cytokines.
# Among rats with detectable staphylococcus, rifampin resistance was tested using E-test strips and Data was analyzed by Fisher's Exact Test. […] (Table 2)
# [5] = oral administration; Descombe et al. 1994; cited from earlier work
# [6] = tested on: Staphylococcus, Streptococcus, Enterococcus, and Enterobacteriaceae; settings: species of Staphylococcus; cited from earlier work
# [7] = after 10 days of gavage with rifaximin, 30 random colonies
# [8] = all rats receiving rifaximin (n=20) vs control rats
# [9] = Staphylococcus from IBS-phenotype rats treated with rifaximin
# [10] = sensitivity to rifampin, IBS-phenotype rats treated with rifaximin
compound,measurement,setting,value
CO[C@H]1/C=C/O[C@@]2(C)Oc3c(C)c(O)c4c(O)c(c(/C=N/N5CCN(C)CC5)c(O)c4c3C2=O)NC(=O)/C(C)=C\C=C\[C@H](C)[C@H](O)[C@@H](C)[C@@H](O)[C@@H](C)[C@H](OC(C)=O)[C@@H]1C [rifampicin],MIC,"Staphylococcus spp. [1]; 240 h, Staphylococcus colonies from rat stool after 10 days of high dose rifaximin, P=0.63 vs baseline",0.91 ± 0.52 µg/mL
same,MIC,Staphylococcus spp. [1]; Staphylococcus colonies from rat stool at baseline (before rifaximin),1.1 ± 1.6 µg/mL
"(2S,16Z,18E,20S,21S,22R,23R,24R,25S,26S,27S,28E)-5,6,21,23,25 Pentahydroxy-27-methoxy-2,4,11,16,20,22,24,26-octamethyl-2,7-(epoxypentadeca-(1,11,13)trienimino)benzofuro(4,5-e)pyrido(1,2,-a)benzimidazole-1,15(2H)-dione,25-acetate) [rifaximin]",Staphylococcus spp. colonies in stool 30 days after rifaximin,Staphylococcus spp. [2]; 30 days after completion of 10 days rifaximin,insufficient Staphylococcus spp. colonies in any of the rats to analyze
same,range of total count of Staphylococcus spp in stool,"Staphylococcus spp. [2]; after 10 days of rifaximin 200 mg daily gavage, 20 rats",0-8.6×10^5 cfu/ml
same,median total count of Staphylococcus spp in stool,"Staphylococcus spp. [2]; after 10 days of rifaximin 200 mg daily gavage, total of S. aureus and coag-Staphylococcus, 20 rats, p<0.01 vs baseline",1.20×10^5 cfu/ml
same,level of S. aureus in stool of rats with detectable S. aureus,Staphylococcus spp. [2]; day 10 of rifaximin treatment,2×10^3 cfu/ml
same,number of rats with detectable S. aureus in stool,"Staphylococcus spp. [2]; day 10 of rifaximin treatment, of 20 rats (18/20 at baseline)",5
same,time course of Staphylococcus spp in stool,Staphylococcus spp. [2]; during rifaximin 200 mg daily gavage,diminish significantly in stool by day 3
same,"Staphylococcal colonies Intermediate (2-4 ug/mL) resistance to rifampin, %",Staphylococcus spp. [1]; [7],3.3%
same,"Staphylococcal colonies Sensitive (<2 ug/mL) to rifampin, %",Staphylococcus spp. [1]; [7],96.6%
same,time to recovery of stool coliform count,coliforms [3]; after the 10-day rifaximin treatment,three
same,median stool coliform count,"coliforms [3]; day 10 of high dose rifaximin, P<0.01 vs baseline",2.2×10^3 cfu/mL
same,durability of the reduction in duodenal bacteria counts by qPCR,"total bacteria; after 10 days of rifaximin and 30 days post, P=0.08, not quite significant",sustained 30 days after the completion of rifaximin
same,duodenal total bacterial counts by qPCR,total bacteria; [8],significant reduction in duodenal bacterial counts
same,jejunal total bacterial counts by qPCR,total bacteria; [8],"appeared to diminish as well, this did not reach statistical significance"
same,"total bacterial counts by qPCR in the ileum, cecum or left colon",total bacteria; [8],no differences were seen
same,change in luminal coliform counts by culture,coliforms [4],no significant change in coliform counts by culture
same,normal flora (coliform) counts in the small bowel,coliform bacteria; rifaximin by itself or with oil as dissolving media,did not appear to change normal flora counts
same,median coliform count in the duodenum,"coliform bacteria; rifaximin in PBS or rifaximin 200 mg in lipid, daily gavage 7 days",0
same,rate of colonization of rats with Staphylococcus,Staphylococcus,reduction in the rate of colonization
same,Median MIC of rifampin,Staphylococcal spp; [9],0.214 µg/mL
same,Range of rifampin MIC,Staphylococcal spp; [9],0.012 to 16 µg/mL
same,rifampin resistance of Staphylococcus after treatment,"Staphylococcal spp; rats with an IBS phenotype, detectable staphylococcus, Fisher's Exact Test",no evidence of rifampin resistance
same,% of rats with resistance,"Staphylococcal spp; resistance to rifampin, 51 IBS-phenotype rats treated with rifaximin",1.96%
same,# of intermed Staphylococcal spp,Staphylococcal spp; [10],0
same,# of resistant Staphylococcal spp,Staphylococcal spp; [10],1
same,# of sensitive Staphylococcal spp,Staphylococcal spp; [10],10
same,systemic absorption,[5],negligible systemic absorption
same,antibacterial activity in vitro,[6],active

# Reference: patent publication US20150164868A1, “METHODS OF ADMINISTERING RIFAXIMIN WITHOUT PRODUCING ANTIBIOTIC RESISTANCE” (priority 2012, published 2015)
